Experimental data from patent US20240376154A1, “BIS-INTERCALATING PEPTIDES, CONJUGATES AND METHODS OF USE” (ZYMEWORKS BC INC., priority 2023, published 2024).

Key:
herring sperm DNA = assay: DNA melting temperature by differential scanning calorimetry (DSC); assay type: binding; conditions: for DNA melt (° C.): DSC, herring sperm DNA, DNA melting temperature = 68° C.
Experimental: Representative compounds prepared as described in Example 2 were assessed in two complementary DNA-binding assays. Increased melting temperature of herring sperm DNA was measured using differential scanning calorimetry (DSC) and binding kinetics were determined by surface plasmon resonance (SPR) using a short DNA hairpin sequence.
DSC experiments were conducted as described in Leng, 2003, Nucleic Acids Res., 31 (21): […], using a Nano DSC (TA Instruments, New Castle, DE) and analyzed using the NanoAnalyze™ software package. Herring sperm DNA solution (Invitrogen 15634017, 10 mg/mL) was diluted to 1 mg/mL (1.4 mM base pair) in BPE buffer (6 mM Na2HPO4, 2 mM NaH2PO4, 1 mM Na4EDTA, pH 7.0). Test articles (20 μL, 10 mM in DMSO) were added and allowed reach equilibrium binding (>3 h), any insoluble material was removed by low-speed centrifugation, then samples were heated from 25 to 110° C. at a scan rate of 1° C./min. Melting curves were plotted and melting temperature was determined using NanoAnalyze™.

[1] = Lipophilicity by experimental HPLC retention time; assay type: physicochemical; conditions: HPLC retention time as measure of lipophilicity; C18, 10 to 90% CH3CN/H2O with 0.1% FA over 25 min
Experimental: The ability to kill neighboring cells (i.e. bystander effect) is an important property for ADC payloads. For a payload comprising a compound of Formula I to be capable of bystander killing, membrane permeability (or transport) is required and the ability of compounds of Formula I to cross cell membranes and exert a cytotoxic effect was expected to be heavily influenced by lipophilicity.
Compounds were analyzed using an Agilent 1260 HPLC (Agilent Technologies, Inc., Santa Clara, CA) equipped with a Diode array detector and using a Phenomenex Kinetex EVO C18 150×4.6, 2.6 μm column (Phenomenex, Torrance, CA), eluting with 10 to 90% CH3CN/H2O with 0.1% FA over 25 min.

[2] = test system: tumour cells (at least 4 of a panel of ovarian, breast, lung, pancreatic, placenta, colon cell lines); assay: In vitro cytotoxicity (cell proliferation, CellTiter-Glo), average over tumour cell line panel; assay type: cell-based; conditions: average pIC50 on all cell lines tested; 5 nights incubation; CellTiter-Glo
Experimental: The ability of representative compounds of Formula I to inhibit proliferation of tumour cells in vitro was evaluated in at least 4 of the following cell lines: OVCAR-3 (ovarian, ATCC), SKOV-3 (ovarian, ATCC), IGROV-1 (ovarian, national research council of Canada (NRC)), OV-90 (ovarian, ATCC), OVKATE (Ovarian, Japanese Collection of Research Bioresources (JCRB) (JCRB1044)), JIMT-1 (breast, NRC), SK-BR-3 (breast, ATCC), T-47D (breast, ATCC), ZR-75-1 (breast, ATCC), MDA-MB-468 (breast, AddexBio), BT-20 (breast, ATCC), BT-474 (breast, NRC), MDA-MB-175 (breast, AddexBio), A549 (lung, collaborator), NCI-H226 (lung, NRC), NCI-H661 (lung, NRC), NCI-H1573 (lung, ATCC). NCI-H1563 (lung, ATCC), H358 (lung, collaborator), EBC-1 (lung, Xenotech), H1299 (lung, NRC), NCI-H292 (lung, ATCC), HCC817 (lung, ATCC), NCI-H441 (lung, ATCC), MIA-PaCa-2 (pancreatic, ATCC), BxPC-3 (pancreatic, ATCC), Panc-1 (pancreatic, ATCC), AsPC-1 (pancreatic, ATCC), JEG-3 (placenta, AddexBio), HT-29 (colon, ATCC).
Cells were cultured per vendor instructions and in log-phase growth were detached by brief incubation in 0.05% trypsin, then resuspended in respective culturing media at 20,000 cells/mL (except for ZR-75 cells, which were resuspended at 10,000 cells/mL). 50 μL/well (˜1000 cells/well) were transferred to sterile tissue culture (TC)-treated 384-well plates (ThermoFisher Scientific, Catalogue #164610) and incubated overnight at 37° C. with 5% CO2 to allow the cells to adhere to the plate surface. The next day, in a sterile, V-bottom, 96-well plate, test articles were titrated 1:3 in complete growth medium, creating a 10-point dose response titration with compounds at 3.5-times the desired final concentration. 20 μL from each dilution were added to the 384-well plate containing the seeded cells and these plates were incubated at 37° C. with 5% CO2 for 5 nights. Cell viability was quantified by first incubating with 15 μL/well of CellTiter-Glo® (Promega, Catalogue #G7572) for 30 minutes, then measuring luminescence with a microplate luminometer (BioTek® Synergy™ H1 Microplate Reader). IC50 values were determined by GraphPad Prism (GraphPad Software, San Diego, CA).
The results are presented in Table 7.1 and discussed in Example 7. Table 7.1 presents the results as average pIC50 values. pIC50=−log (IC50), thus, for example, pIC50=9 is equivalent to IC50=1 nM, and pIC50=6 is equivalent to IC50=1 μM.

[3] = amide bond; 32-membered ring

| Compound | DNA melt (° C.) (herring sperm DNA) | HPLC [1] [min] | pIC50 (average) [2] | DNA binding (in words) (herring sperm DNA; only DSC data in Table 7.1) | ring closure, isolated yield [3] [%] |
| --- | --- | --- | --- | --- | --- |
| CC(C)[C@H]1C(=O)NC[C@@H](NC(=O)c2nc3ccccc3cc2O)C(=O)N2CCCC[C@H]2C(=O)NCC(=O)N(C)CC(=O)N2CCCC[C@H]2C(=O)NC[C@@H](NC(=O)c2nc3ccccc3cc2O)C(=O)N2CCCC[C@H]2C(=O)NCC(=O)N(C)CC(=O)N1C [Compound 82] | 92 °C | 16.4 | 8.0 | – | – |
| O=C(N[C@@H]1CNC(=O)[C@@H]2CCCCN2C(=O)COCCNC(=O)[C@@H]2CCCCN2C(=O)[C@H](NC(=O)c2nc3ccccc3cc2O)CNC(=O)[C@@H]2CCCCN2C(=O)COCCNC(=O)[C@@H]2CCCCN2C1=O)c1nc2ccccc2cc1O [Compound 409, N,N′-((7R,10aS,22aS,29R,32aS,44aS)-6,10,16,22,28,32,38,44-octaoxotetracontahydro-2H,19H-tetrapyrido[1,2-a1: 1′,2′-d: 1″,2″-k: 1′″,2′″-t][1,17]dioxa[4,7,11,14,20,23,27,30]octaazacyclodotriacontine-7,29-diyl)bis(3-hydroxyquinoline-2-carboxamide)] | 68^1 °C | 16.1 | inactive | did not demonstrate measurable DNA binding | – |
| CC[C@H](C)[C@H]1C(=O)NC[C@@H](NC(=O)c2nc3ccccc3cc2O)C(=O)N2CCCC[C@H]2C(=O)NCC(=O)N(C)CC(=O)N(C)[C@@H]([C@@H](C)CC)C(=O)O[C@H](C)[C@@H](NC(=O)c2nc3ccccc3cc2O)C(=O)N2CCCC[C@H]2C(=O)NCC(=O)N(C)CC(=O)N1C [Compound 30, N,N′-((7R,8R,11S,19aS,26R,30S,38aS)-11,30-di((S)-sec-butyl)-8,12,15,31,34-pentamethyl-6,10,13,16,19,25,29,32,35,38-decaoxotetratriacontahydro-2H,6H,10H-dipyrido[2,1-b1: 2′,1′-l][1]oxa[4,7,10,13,17,20,23,26,29]nonaazacyclodotriacontine-7,26-diyl)bis(3-hydroxyquinoline-2-carboxamide)] | 85 °C | 20.9 | 8.3 | – | – |
| CC(C)[C@H]1COC[C@@H](NC(=O)c2nc3ccccc3cc2O)C(=O)N2CCCC[C@H]2C(=O)NCC(=O)N(C)CC(=O)N(C)[C@@H](C(C)C)C(=O)OC[C@@H](NC(=O)c2nc3ccccc3cc2O)C(=O)N2CCCC[C@H]2C(=O)NCC(=O)N(C)CC(=O)N1C [Compound 203, N,N′-((7R,11S,19aS,26R,30S,38aS)-11,30-diisopropyl-12,15,31,34-tetramethyl-6,10,13,16,19,25,32,35,38-nonaoxodotriacontahydro-2H,6H,10H,25H-dipyrido[2,1-b1: 2′,1′-1][1,17]dioxa[4,7,10,13,20,23,26,29]octaazacyclodotriacontine-7,26-diyl)bis(3-hydroxyquinoline-2-carboxamide)] | 96 °C | 20.2 | 8.5 | – | – |
| Benzyl tert-butyl ((7R,11S,19aS,26R,30S,38aS)-11,30-dicyclohexyl-12,15,31,34-tetramethyl-6,10,13,16,19,25,29,32,35,38-decaoxohexatriacontahydro-2H,6H-dipyrido[1,2-a:1′,2′-q][1,4,7,10,13,17,20,23,26,29]decaazacyclodotriacontine-7,26-diyl)dicarbamate | – | – | – | – | 72 |
| Benzyl tert-butyl ((7′R,19a'S,26′R,30'S,38a'S)-30′-isopropyl-12′,15′,31′,34′-tetramethyl-6′,10′,13′,16′,19′,25′,29′,32′,35′,38′-decaoxotetratriacontahydro-2′H,6′H,12′H-spiro[cyclobutane-1,11′-dipyrido[1,2-a:1′,2′-q][1,4,7,10,13,17,20,23,26,29]decaazacyclodotriacontine]-7′,26′-diyl)dicarbamate | – | – | – | – | 43 |
| Dibenzyl ((7R,11S,19aS,26R,30S,38aS)-11-((R)-1-(tert-butoxy)ethyl)-30-isopropyl-12,15,31,34-tetramethyl-6,10,13,16,19,25,29,32,35,38-decaoxohexatriacontahydro-2H,6H-dipyrido[1,2-a:1′,2′-q][1,4,7,10,13,17,20,23,26,29]decaazacyclodotriacontine-7,26-diyl)dicarbamate | – | – | – | – | 91 |
| Di-tert-butyl ((7R,11S,19aS,26R,30S,38aS)-11,30-diisopropyl-12,15,31,34-tetramethyl-6,10,13,16,19,25,29,32,35,38-decaoxotetratriacontahydro-2H,6H,10H-dipyrido[2,1-b1: 2′,1′-l][1]oxa[4,7,10,13,17,20,23,26,29]nonaazacyclodotriacontine-7,26-diyl)dicarbamate | – | – | – | – | 86 |
| Benzyl tert-butyl ((7R,11S,19aS,26R,30S,38aS)-11,30-diisopropyl-12,15,31,34-tetramethyl-6,10,13,16,19,25,29,32,35,38-decaoxohexatriacontahydro-2H,6H-dipyrido[1,2-a:1′,2′-q][1,4,7,10,13,17,20,23,26,29]decaazacyclodotriacontine-7,26-diyl)dicarbamate | – | – | – | – | 69 |
| di-tert-butyl ((7R,11S,19aS,26R,30S,38aS)-11,30-diisopropyl-12,15,31,34-tetramethyl-6,10,13,16,19,25,29,32,35,38-decaoxohexatriacontahydro-2H,6H-dipyrido[1,2-a:1′,2′-q][1,4,7,10,13,17,20,23,26,29]decaazacyclodotriacontine-7,26-diyl)dicarbamate | – | – | – | – | 34 |
| Benzyl tert-butyl ((7R,8R,11S,19aS,26R,30S,38aS)-11,30-di((S)-sec-butyl)-8,12,15,31,34-pentamethyl-6,10,13,16,19,25,29,32,35,38-decaoxotetratriacontahydro-2H,6H,10H-dipyrido[2,1-b1: 2′,1′-l][1]oxa[4,7,10,13,17,20,23,26,29]nonaazacyclodotriacontine-7,26-diyl)dicarbamate | – | – | – | – | 71 |
| Benzyl tert-butyl ((3aS,7R,13aS,22S,26R,32aS)-22-isopropyl-18,21,37-trimethyl-4,8,14,17,20,23,27,33,36,39-decaoxooctatriacontahydro-1H,10H-dipyrido[1,2-a:1′,2′-q]pyrrolo[1,2-j][1,4,7,10,13,17,20,23,26,29]decaazacyclodotriacontine-7,26-diyl)dicarbamate | – | – | – | – | 62 |
